Data: patent publication US20040048807A1, “Angiogenesis inhibitors” (priority 2000, published 2004)

What was measured:
KB/TP cells = test: TP-dependent liver metastasis after injection of tumor cells into the spleen; format: in vivo, mouse; conditions: for number of metastatic nodules in liver: KB/TP cell into spleen, 4 weeks, Balb/nude mouse
Experimental: A Balb/nude mouse of 7-8 weeks age is anesthetized by Nembutal (pentobarbital) and abdomen is slightly incised so as to observe the spleen. 1×10^5 numbers of KB/CV cells or KB/TP cells used in Example 2 is injected into the spleen. After one minute, the spleen is excised and the incised position is sutured. 2-deoxy-L-ribose (100 mg/kg/day) is injected to subcutaneous by two times (morning and evening) every day or one time every other day. To the control group, same amount of physiological saline is injected. After 4 weeks from therapy starting, abdomen is incised, the liver is excised and the number of metastatic nodules are counted. […] The number of metastatic lesions of KB/TP cell is obviously larger than those of KB/CV cell.

[1] = system: BAE cell (endothelial cells of bovine aorta); test: Chemotaxis of BAE cells (collagen-coated chamber, MTT method); format: cell-based; conditions: 2DDR 10 μM + 2DLR 100 μM versus 2DDR 10 μM alone; DMEM + 1% FCS; incubation 4.5 hours
Experimental: The experimental results of the effect of 2-deoxy-L-ribose on the chemotaxis of BAE cell (endothelial cells of bovine aorta) are shown in FIG. 1. The numbers of inoculated cell 400000, incubation 4.5 hours Chamber coated by type 1 collagen: MTT method From left side, 1: DMEM+1% FCS (fetal calf serum) 2: 1+bFGF (angiogenesis factor) 10 ng/mL, 3: 1+2DDR (2-deoxy-D-ribose) 1 μM 4: 1+2DDR 10 μM 5: 1+2DDR 100 μM 6: 1+2DDR 10 μM+2DLR100 μM The effect of 2DLR ([…]) is obvious from the comparison between the date 4 and 6.

[2] = system: KB cells overpressing TP (KB/TP); test: Millipore chamber angiogenesis assay, chamber with KB cells implanted dorsal subcutaneously in mouse; format: in vivo; conditions: for number of angiogenesis (longer than 3 mm, zig-zag pattern): 100 mg/kg/day into abdominal cavity every 12 hours for 4 days, male BALB/c mouse
Experimental: KB cells overpressing TP (KB/TP) prepared by transfection of […] into KB cells and TP-negative KB cells (KB/CV) prepared by transfection of an empty vector are rinsed by phosphate buffered saline PBS for two times, each 1×10^5 numbers are contained into a Millipore chamber (10 mm diameter, 2 mm thickness, pore size of filter is 0.22 μm) and inserted into dorsal subcutaneous of a male BALB/c mouse of 6-7 weeks age. 2-deoxy-L-ribose (100 mg/kg/day) is administered into abdominal cavity every 12 hours for 4 days. After 4 days from the implanting, the Millipore chamber is removed, and numbers of angiogenesis (longer than 3 mm and showing zig-zag pattern) were counted using a microscope. Results by microscope observation are shown in FIG. 2 (picture A, B, C and D). The number of angiogenesis by KB/TP cell (B) is 4.33 and that of KB/CV cell (B) is 2.67. When 2-deoxy-L-ribose is administereded, that of KB/TP cell (D) becomes to 2.83 and that of […] becomes to 2.83.

## O=CC[C@@H](O)[C@@H](O)CO [2-deoxy-L-ribose]
KB/TP cells; 100 mg/kg/day subcutaneous, overall conclusion
  suppression of TP-dependent metastasis of tumor from spleen to liver: perfectly suppressing the TP-dependent metastasis of tumor from spleen to liver
KB/TP cells; 100 mg/kg/day subcutaneous one time every other day
  number of metastatic nodules in liver: smaller than the number of metastatic nodules of KB/CV cell
KB/TP cells; 100 mg/kg/day subcutaneous two times (morning and evening) every day (LR)
  number of metastatic nodules in liver: smaller than the number of metastatic nodules of KB/CV cell
[1]
  effect on the chemotaxis of BAE cell: obvious
[2]; 100 mg/kg/day into abdominal cavity for 4 days, overall conclusion
  suppression of the angiogenesis by TP: perfectly supressing the angiogenesis by TP
[2]; KB/TP cell (D)
  number of angiogenesis (longer than 3 mm, zig-zag pattern): 2.83
[2]; KB/TP cell (E) as printed
  number of angiogenesis (longer than 3 mm, zig-zag pattern): 2.83
